US11607404B2, “Combinations of RAD51 and PARP inhibitors” (Cyteir Therapeutics, Inc., priority 2019, dated 2023)

What was measured:
[1] = system: ARPE19/HPV16, KYSE-70 and Daudi cell lines; assay: Combination matrix study Compound 67A + PARP inhibitors, cell lines of varying AID expression (Bliss, Loewe); assay type: cell-based; conditions: non-tumor derived cell line ARPE19/HPV16; in combination with Compound 67A
Experimental: The combination matrix was tested in 3 cell lines of varying AID expression: ARPE19/HPV16 (HPV immortalized normal epithelial cell line), KYSE-70 (head and neck cancer cell line) and Daudi (Burkitt's Lymphoma cell line). […] Both the Loewe Additivity model and the Bliss Independence model were used to determine drug interaction (synergistic, independent, or antagonistic).
Bliss Independence model was used and calculated in Excel. The model assumes that the drugs act with probabilistic independence. Bliss: yexp=yA+yB−yAyB
This expected value was generated by examining single-agent effects and then tested against the observed value using a two-tailed Welch's T-Test. For visualization purposes, the values generated from this test were transformed to a “Synergy Score” by doing the computation:
Loewe Additivity model was used and calculated by the “Synergyfinder” R package.
The graphs generated describe the difference between the expected value generated by the additivity model and the observed value generated by the experiment. If the effect determined by the additivity model<the effect observed the space is colored red, if the effect determined by the additivity mode>the effect observed then the space is colored green. The saturation of the color is proportional to the magnitude of the difference between these two values.

TM01079 model = assay: Tumor growth inhibition, subcutaneous engrafted tumor model; assay type: in vivo, mice; conditions: HRD Positive, RAD51 Low, BRCA1 Meth, PALB2 WT, 67A 40 mg/kg QD, olaparib 50 mg/kg QD, combo both
Experimental: (§1) Immunodeficient mice were subcutaneously engrafted in the rear flank with the tumor cells. The tumors were allowed to grow to a size of about 100 to about 200 mm^3 prior to being randomized and grouped into treatment arms. For models […] through […] the four treatment arms were vehicle, Compound 67A at 80 mg/kg QD, olaparib at 100 mg/kg QD, and Compound 67A+Olaparib at 80 mg/kg QD and 100 mg/kg QD, respectively. For models J000101173 through TM00091 the treatment arms were vehicle, Compound 67A at 40 mg/kg QD, olaparib at 50 mg/kg QD, and Compound 67A+Olaparib at 40 mg/kg QD and 50 mg/kg QD, respectively. The tumors were measured either once weekly or twice weekly.
(§2) Percent Tumor Growth Inhibition (% TGI) was calculated by taking the mean volume of each of the treatment arms, and comparing the treatment arms to the vehicle arms using the following equation

HBCx16 model = assay: as above; assay type: in vivo, mice; conditions: HRD Positive, RAD51 High, BRCA1 Meth, PALB2 WT, 67A 80 mg/kg QD, olaparib 100 mg/kg QD, combo both
Experimental: as §1, §2

HBCx17 model = assay: as above; assay type: in vivo, mice; conditions: HRD Positive, RAD51 High, BRCA2 Mut, PALB2 WT, 67A 80 mg/kg QD, olaparib 100 mg/kg QD, combo both
Experimental: as §1, §2

HBCx11 model = assay: as above; assay type: in vivo, mice; conditions: HRD Positive, RAD51 High, BRCA1 Mut, PALB2 WT, 67A 80 mg/kg QD, olaparib 100 mg/kg QD, combo both
Experimental: as §1, §2

HBCx23 model = assay: as above; assay type: in vivo, mice; conditions: HRD Positive, RAD51 High, BRCA1 Meth, PALB2 WT, 67A 80 mg/kg QD, olaparib 100 mg/kg QD, combo both
Experimental: as §1, §2

TM00096 model = assay: as above; assay type: in vivo, mice; conditions: HRD Positive, RAD51 Low, BRCA WT, PALB2 WT, 67A 40 mg/kg QD, olaparib 50 mg/kg QD, combo both
Experimental: as §1, §2

T298 model = assay: as above; assay type: in vivo, mice; conditions: HRD Positive, RAD51 Low, BRCA WT, PALB2 Mut, 67A 80 mg/kg QD, olaparib 100 mg/kg QD, combo both
Experimental: as §1, §2

J000101173 model = assay: as above; assay type: in vivo, mice; conditions: HRD Positive, RAD51 Low, BRCA WT, PALB2 WT, 67A 40 mg/kg QD, olaparib 50 mg/kg QD, combo both
Experimental: as §1, §2

TM00091 model = assay: as above; assay type: in vivo, mice; conditions: HRD Positive, RAD51 High, BRCA1 Mut, PALB2 WT, 67A 40 mg/kg QD, olaparib 50 mg/kg QD, combo both
Experimental: as §1, §2

TM000113 model = assay: as above; assay type: in vivo, mice; conditions: HRD Negative, RAD51 Low, BRCA WT, PALB2 WT, 67A 40 mg/kg QD, olaparib 50 mg/kg QD, combo both
Experimental: as §1, §2

HBCx12B model = assay: as above; assay type: in vivo, mice; conditions: HRD Positive, RAD51 High, BRCA1 Meth, PALB2 WT, 67A 80 mg/kg QD, olaparib 100 mg/kg QD, combo both
Experimental: as §1, §2

J000100675 model = assay: as above; assay type: in vivo, mice; conditions: HRD Negative, RAD51 Low, BRCA WT, PALB2 WT, 67A 40 mg/kg QD, olaparib 50 mg/kg QD, combo both
Experimental: as §1, §2

TM00090 model = assay: as above; assay type: in vivo, mice; conditions: HRD Positive, RAD51 Low, BRCA1 Meth, BRCA2 Mut, PALB2 WT, 67A 40 mg/kg QD, olaparib 50 mg/kg QD, combo both
Experimental: as §1, §2

HBCx1 model = assay: as above; assay type: in vivo, mice; conditions: HRD Positive, RAD51 High, BRCA WT, PALB2 WT, 67A 80 mg/kg QD, olaparib 100 mg/kg QD, combo both
Experimental: as §1, §2

HBCx27 model = assay: as above; assay type: in vivo, mice; conditions: HRD Negative, RAD51 High, BRCA WT, PALB2 WT, 67A 80 mg/kg QD, olaparib 100 mg/kg QD, combo both
Experimental: as §1, §2

## O=C(c1cc(Cc2n[nH]c(=O)c3ccccc23)ccc1F)N1CCN(C(=O)C2CC2)CC1 [Olaparib, olaparib, reference compound]
[1]
  Drug interaction with Compound 67A (synergy): synergy observed
TM01079 model
  % TGI: 68.7%
HBCx16 model
  % TGI: −25.61%
HBCx17 model
  % TGI: 122%
HBCx11 model
  % TGI: 60.95%
HBCx23 model
  % TGI: 84.48%
TM00096 model
  % TGI: −1.94%
T298 model
  % TGI: 107%
J000101173 model
  % TGI: 4.71%
TM00091 model
  % TGI: 21.26%
TM000113 model
  % TGI: 2.37%
HBCx12B model
  % TGI: 42.56%
J000100675 model
  % TGI: −17%
TM00090 model
  % TGI: 86.05%
HBCx1 model
  % TGI: 51.07%
HBCx27 model
  % TGI: 7.819%
